{"source": "paper PMC10265003", "about": "(Royal Society Open Science, 2023)", "origin": "cited, not measured here", "key": {"[1]": {"system": "MCF-7 breast cancer line", "settings": "cytotoxic effect against MCF-7 cells, not tested in this paper; cited from earlier work", "from_the_text": "Dimeric peptides derived from peptide ^26[F]: (RRWQWRFKKLG)2-K-Ahx were synthesized and characterized. The analogues with the highest synthetic viability in terms of purity and yield were ^26[1-Nal] and ^26[hF]."}, "[2]": {"system": "MDA-MB-231 breast cancer cell line", "settings": "cytotoxic effect; cited from earlier work", "from_the_text": "(§1) Solid-phase peptide synthesis has allowed chemical and structural modifications to be made to ACPs in order to enhance their activity and increase their resistance to proteolytic degradation."}, "[3]": {"system": "MDA-MB-468 breast cancer cell line", "settings": "cytotoxic effect; cited from earlier work", "from_the_text": "as §1"}}, "data": [{"substance": "(^20RRWQWRMKKLG^30)2-K-Ahx [LfcinB (20–30)2]", "values": [{"measurement": "IC50", "setting": "[1]", "result": "≥ 60", "unit": "µM"}, {"measurement": "IC50", "setting": "[2]", "result": 14, "unit": "µM"}, {"measurement": "IC50", "setting": "[3]", "result": 5, "unit": "µM"}]}]}
